One block for each molecule: values may come before it. Calls of active or inactive are those of the source. The calls are words filed in the database; no cut-off is given here.
How the values were obtained:
[1] = Cytotoxicity against mouse BV-2 cells assessed as cell viability at 5 uM incubated for 24 hrs by MTT assay relative to control; type: toxicity, cell-based; settings: read-out: Activity
[2] = Cytotoxicity against mouse BV-2 cells assessed as cell viability at 10 uM incubated for 24 hrs by MTT assay relative to control; type: toxicity, cell-based; settings: read-out: Activity
[3] = Inhibition of LPS-induced NO production in mouse BV-2 cells at 5 uM incubated for 24 hrs by Griess reagent based method relative to control; type: functional
[4] = Inhibition of LPS-induced NO production in mouse BV-2 cells at 10 uM incubated for 24 hrs by Griess reagent based method relative to control; type: functional
[5] = Inhibition of LPS-induced NO production in mouse BV-2 cells incubated for 24 hrs by Griess reagent based method; type: functional, cell-based; settings: BV-2, 24 h
BV-2 [6] = assay: Antiinflammatory activity in LPS-induced mouse BV-2 cells assessed as reduction in iNOS mRNA expression pretreated for 1 hr followed by LPS stimulation and measured after 6 hrs by RT-PCR analysis; type: functional, cell-based; settings: dose 5-20 µM, time 7.0 hrs
BV-2 [7] = assay: Antiinflammatory activity in LPS-induced mouse BV-2 cells assessed as reduction in COX-2 mRNA expression pretreated for 1 hr followed by LPS stimulation and measured after 6 hrs by RT-PCR analysis; type: functional, cell-based; settings: dose 5-20 µM, time 7.0 hrs
BV-2 [8] = assay: Antiinflammatory activity in LPS-induced mouse BV-2 cells assessed as reduction in TNF-alpha mRNA expression pretreated for 1 hr followed by LPS stimulation and measured after 6 hrs by RT-PCR analysis; type: functional, cell-based; settings: dose 5-20 µM, time 7.0 hrs
BV-2 [9] = assay: Antiinflammatory activity in LPS-induced mouse BV-2 cells assessed as reduction in IL-1beta mRNA expression pretreated for 1 hr followed by LPS stimulation and measured after 6 hrs by RT-PCR analysis; type: functional, cell-based; settings: dose 5-20 µM, time 7.0 hrs
BV-2 [10] = assay: Antiinflammatory activity in LPS-induced mouse BV-2 cells assessed as reduction in IL-6 mRNA expression pretreated for 1 hr followed by LPS stimulation and measured after 6 hrs by RT-PCR analysis; type: functional, cell-based; settings: dose 5-20 µM, time 7.0 hrs
BV-2 [11] = assay: Antiinflammatory activity in LPS-induced mouse BV-2 cells assessed as reduction in iNOS protein expression pretreated for 1 hr followed by LPS stimulation and measured after 18 hrs by Western blot analysis; type: functional, cell-based; settings: dose 5-20 µM, time 19.0 hrs
BV-2 [12] = assay: Antiinflammatory activity in LPS-induced mouse BV-2 cells assessed as reduction in COX-2 protein expression pretreated for 1 hr followed by LPS stimulation and measured after 18 hrs by Western blot analysis; type: functional, cell-based; settings: dose 5-20 µM, time 19.0 hrs
BV-2 [13] = assay: Inhibition of NF-kappaB activation in LPS-stimulated mouse BV-2 cells assessed as reduction in phosphorylated IkappaB-alpha level pretreated for 30 mins followed by LPS stimulation by Western blot analysis; type: cell-based; settings: dose 5-20 µM
BV-2 [14] = assay: Inhibition of NF-kappaB activation in LPS-stimulated mouse BV-2 cells assessed as reduction in phosphorylated p65 level pretreated for 30 mins followed by LPS stimulation by Western blot analysis; type: cell-based; settings: dose 5-20 µM
BV-2 [15] = assay: Inhibition of LPS-induced ERK phosphorylation in mouse BV-2 cells pretreated for 30 mins followed by LPS stimulation by Western blot analysis; type: cell-based; settings: dose 5-20 µM
[16] = molecular target: MAP kinase p38 (Mus musculus) (UniProt P47811+O08911+Q9WUI1+Q9Z1B7); assay: Inhibition of LPS-induced p38 phosphorylation in mouse BV-2 cells at 5 to 20 uM pretreated for 30 mins followed by LPS stimulation by Western blot analysis; type: cell-based; settings: dose 5-20 µM
[17] = molecular target: c-Jun N-terminal kinase (Mus musculus) (UniProt Q91Y86+Q9WTU6+Q61831); assay: Inhibition of LPS-induced JNK phosphorylation in mouse BV-2 cells at 5 to 20 uM pretreated for 30 mins followed by LPS stimulation by Western blot analysis; type: cell-based; settings: dose 5-20 µM
Chain of c-Jun N-terminal kinase (Mus musculus) (Q61831 whole entry, looked up): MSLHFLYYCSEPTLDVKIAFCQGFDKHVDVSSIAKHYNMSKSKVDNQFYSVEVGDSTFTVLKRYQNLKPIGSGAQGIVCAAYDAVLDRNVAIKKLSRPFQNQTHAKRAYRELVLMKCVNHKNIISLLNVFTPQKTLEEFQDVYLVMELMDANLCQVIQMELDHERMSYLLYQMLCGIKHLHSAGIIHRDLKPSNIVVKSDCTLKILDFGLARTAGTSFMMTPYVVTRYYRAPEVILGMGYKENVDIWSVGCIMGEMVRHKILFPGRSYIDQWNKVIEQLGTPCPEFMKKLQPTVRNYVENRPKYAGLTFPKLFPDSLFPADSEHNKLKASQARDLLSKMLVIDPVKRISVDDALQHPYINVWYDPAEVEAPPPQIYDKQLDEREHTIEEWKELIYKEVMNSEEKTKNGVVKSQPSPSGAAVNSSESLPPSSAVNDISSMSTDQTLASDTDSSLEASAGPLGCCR
Chain of c-Jun N-terminal kinase (Mus musculus) (Q91Y86 whole entry, looked up): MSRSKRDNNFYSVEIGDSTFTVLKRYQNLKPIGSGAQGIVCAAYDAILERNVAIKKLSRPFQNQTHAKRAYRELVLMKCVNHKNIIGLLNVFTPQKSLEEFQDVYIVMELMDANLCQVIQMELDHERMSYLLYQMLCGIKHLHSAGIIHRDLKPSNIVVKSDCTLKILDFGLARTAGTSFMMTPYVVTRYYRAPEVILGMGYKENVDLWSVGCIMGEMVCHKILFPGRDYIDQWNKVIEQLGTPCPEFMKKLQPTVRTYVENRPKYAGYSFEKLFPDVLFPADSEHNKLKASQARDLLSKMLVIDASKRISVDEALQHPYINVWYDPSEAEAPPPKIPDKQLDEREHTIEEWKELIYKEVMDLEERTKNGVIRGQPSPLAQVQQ
Chain of c-Jun N-terminal kinase (Mus musculus) (Q9WTU6 whole entry, looked up): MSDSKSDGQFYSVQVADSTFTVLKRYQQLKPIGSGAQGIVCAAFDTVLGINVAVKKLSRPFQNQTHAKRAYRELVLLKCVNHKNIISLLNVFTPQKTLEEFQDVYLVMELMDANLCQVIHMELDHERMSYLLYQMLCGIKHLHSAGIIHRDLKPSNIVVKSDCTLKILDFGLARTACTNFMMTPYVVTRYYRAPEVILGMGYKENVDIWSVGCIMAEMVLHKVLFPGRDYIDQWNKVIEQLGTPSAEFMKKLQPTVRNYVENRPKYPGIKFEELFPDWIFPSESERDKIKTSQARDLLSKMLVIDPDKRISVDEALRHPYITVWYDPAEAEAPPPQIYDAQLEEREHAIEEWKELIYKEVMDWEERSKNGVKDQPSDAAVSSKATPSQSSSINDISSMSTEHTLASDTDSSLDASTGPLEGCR

Compound: Cc1c(C(=O)C(=O)NC23CC4CC(CC(C4)C2)C3)nn(-c2ccc(Cl)cc2Cl)c1-c1ccc(Cl)cc1
viability at 24 h, 5 µM [1]: < 80%

Compound: Cc1c(C(=O)C(=O)NC2CCCC2)nn(-c2ccc(Cl)cc2Cl)c1-c1ccc(Cl)cc1
viability at 24 h, 5 µM [1]: < 80%

IC50 [5]: 5.08 µM
Compound: Cc1c(C(=O)C(=O)NCCO)nn(-c2ccc(Cl)cc2Cl)c1-c1ccc(Cl)cc1
viability at 24 h, 5 µM [1]: 94.2%
viability at 24 h, 10 µM [2]: 93.6%
inhibition at 5 µM [3]: 62.8%
inhibition at 10 µM [4]: 73.4%

Compound: Cc1c(C(=O)C(=O)N2CCNCC2)nn(-c2ccc(Cl)cc2Cl)c1-c1ccc(Cl)cc1
viability at 24 h, 5 µM [1]: < 80%

Compound: CCCCCCNC(=O)C(=O)c1nn(-c2ccc(Cl)cc2Cl)c(-c2ccc(Cl)cc2)c1C
viability at 24 h, 5 µM [1]: < 80%

Compound: Cc1c(C(=O)C(=O)N2CCCCCC2)nn(-c2ccc(Cl)cc2Cl)c1-c1ccc(Cl)cc1
viability at 24 h, 5 µM [1]: < 80%

Compound: CCCNC(=O)C(=O)c1nn(-c2ccc(Cl)cc2Cl)c(-c2ccc(Cl)cc2)c1C
viability at 24 h, 5 µM [1]: < 80%

Compound: Cc1c(C(=O)C(=O)NCCCO)nn(-c2ccc(Cl)cc2Cl)c1-c1ccc(Cl)cc1
viability at 24 h, 5 µM [1]: < 80%

Compound: Cc1c(C(=O)C(=O)NC2CCCCCC2)nn(-c2ccc(Cl)cc2Cl)c1-c1ccc(Cl)cc1
viability at 24 h, 5 µM [1]: < 80%

Compound: Cc1c(C(=O)C(=O)N2CCCC2)nn(-c2ccc(Cl)cc2Cl)c1-c1ccc(Cl)cc1
viability at 24 h, 5 µM [1]: < 80%

IC50 [5]: 5.82 µM
Compound: Cc1c(C(=O)C(=O)N2CCCCC2)nn(-c2ccc(Cl)cc2Cl)c1-c1ccc(Cl)cc1
viability at 24 h, 5 µM [1]: 98.2%
viability at 24 h, 10 µM [2]: 80%
inhibition at 5 µM [3]: 20.3%
inhibition at 10 µM [4]: 50.1%

IC50 [5]: 5.28 µM
Compound: Cc1c(C(=O)C(=O)N2CCSCC2)nn(-c2ccc(Cl)cc2Cl)c1-c1ccc(Cl)cc1
viability at 24 h, 5 µM [1]: 99.6%
viability at 24 h, 10 µM [2]: 96.5%
inhibition at 5 µM [3]: 13.5%
inhibition at 10 µM [4]: 58.3%

IC50 [5]: 4.71 µM
inhibition [16]: inactive
inhibition [17]: inactive
Compound: Cc1c(C(=O)C(=O)N2CCOCC2)nn(-c2ccc(Cl)cc2Cl)c1-c1ccc(Cl)cc1
viability at 24 h, 5 µM [1]: 98%
viability at 24 h, 10 µM [2]: 98.7%
inhibition at 5 µM [3]: 26.1%
inhibition at 10 µM [4]: 49.7%
Activity (BV-2 [6]): Dose-Dependent Effect
Activity (BV-2 [7]): Dose-Dependent Effect
Activity (BV-2 [8]): Dose-Dependent Effect
Activity (BV-2 [9]): Dose-Dependent Effect
Activity (BV-2 [10]): Dose-Dependent Effect
Activity (BV-2 [11]): Dose-Dependent Effect
Activity (BV-2 [12]): Dose-Dependent Effect
inhibition (BV-2 [13]): Dose-Dependent Effect
inhibition (BV-2 [14]): Dose-Dependent Effect
inhibition (BV-2 [15]): Dose-Dependent Effect

Compound: CCCCNC(=O)C(=O)c1nn(-c2ccc(Cl)cc2Cl)c(-c2ccc(Cl)cc2)c1C
viability at 24 h, 5 µM [1]: < 80%

Compound: Cc1c(C(=O)C(=O)N2CCN(C)CC2)nn(-c2ccc(Cl)cc2Cl)c1-c1ccc(Cl)cc1
viability at 24 h, 5 µM [1]: 95.2%
viability at 24 h, 10 µM [2]: ≤ 80%
inhibition at 5 µM [3]: 38.1%
inhibition at 10 µM [4]: 48%

Compound: CCCCCCCNC(=O)C(=O)c1nn(-c2ccc(Cl)cc2Cl)c(-c2ccc(Cl)cc2)c1C
viability at 24 h, 5 µM [1]: < 80%

Compound: CCCCCNC(=O)C(=O)c1nn(-c2ccc(Cl)cc2Cl)c(-c2ccc(Cl)cc2)c1C
viability at 24 h, 5 µM [1]: < 80%

Compound: Cc1c(C(=O)C(=O)NC(C)C)nn(-c2ccc(Cl)cc2Cl)c1-c1ccc(Cl)cc1
viability at 24 h, 5 µM [1]: < 80%

Compound: Cc1c(C(=O)C(=O)NC2CCCCC2)nn(-c2ccc(Cl)cc2Cl)c1-c1ccc(Cl)cc1
viability at 24 h, 5 µM [1]: 96.8%
viability at 24 h, 10 µM [2]: < 80%
inhibition at 5 µM [3]: 87.4%

Compound: CCCCCCCCNC(=O)C(=O)c1nn(-c2ccc(Cl)cc2Cl)c(-c2ccc(Cl)cc2)c1C
viability at 24 h, 5 µM [1]: < 80%

Compound: Cc1c(C(=O)C(=O)NC2CCC(O)CC2)nn(-c2ccc(Cl)cc2Cl)c1-c1ccc(Cl)cc1 (stereo unspecified)
viability at 24 h, 5 µM [1]: < 80%

Compound: Cc1c(C(=O)C(=O)NN2CCCCC2)nn(-c2ccc(Cl)cc2Cl)c1-c1ccc(Cl)cc1
viability at 24 h, 5 µM [1]: < 80%

IC50 [5]: 16.2 µM
Compound: Cc1c(C(=O)NN2CCCCC2)nn(-c2ccc(Cl)cc2Cl)c1-c1ccc(Cl)cc1 [RIMONABANT]
viability at 24 h, 5 µM [1]: 99.3%
viability at 24 h, 10 µM [2]: 91.2%
inhibition at 5 µM [3]: 21.2%
inhibition at 10 µM [4]: 43.9%

Compound: Cc1c(C(=O)C(=O)NCC(C)C)nn(-c2ccc(Cl)cc2Cl)c1-c1ccc(Cl)cc1
viability at 24 h, 5 µM [1]: < 80%

Compound: CCNC(=O)C(=O)c1nn(-c2ccc(Cl)cc2Cl)c(-c2ccc(Cl)cc2)c1C
viability at 24 h, 5 µM [1]: 86.4%
viability at 24 h, 10 µM [2]: < 80%
inhibition at 5 µM [3]: 63.7%

Compound: Cc1c(C(=O)C(=O)NC(C)(C)C)nn(-c2ccc(Cl)cc2Cl)c1-c1ccc(Cl)cc1
viability at 24 h, 5 µM [1]: < 80%

Compound: Cc1c(C(=O)C(=O)N2CCC(O)CC2)nn(-c2ccc(Cl)cc2Cl)c1-c1ccc(Cl)cc1
viability at 24 h, 5 µM [1]: < 80%
